In assay [1] the target is Creatine kinase M-type (Oryctolagus cuniculus) (UniProt P00563). The assay can be described thus: Inhibition of rabbit muscle creatine kinase at 27.5 uM in presence of 400 uM MgATP.
For assay [2], the target named is T1, Creatine kinase M-type (Oryctolagus cuniculus, UniProt P00563). The assay can be described thus: Inhibition of rabbit muscle creatine kinase by pH-stat assay.
In assay [3] the target is T1, Creatine kinase M-type. The assay is described as follows: Inhibition of rabbit muscle creatine kinase-MgATP complex by pH-stat assay.

pIC50, pKi: −log10 of the molar value.

T1 sequence (P00563 whole entry): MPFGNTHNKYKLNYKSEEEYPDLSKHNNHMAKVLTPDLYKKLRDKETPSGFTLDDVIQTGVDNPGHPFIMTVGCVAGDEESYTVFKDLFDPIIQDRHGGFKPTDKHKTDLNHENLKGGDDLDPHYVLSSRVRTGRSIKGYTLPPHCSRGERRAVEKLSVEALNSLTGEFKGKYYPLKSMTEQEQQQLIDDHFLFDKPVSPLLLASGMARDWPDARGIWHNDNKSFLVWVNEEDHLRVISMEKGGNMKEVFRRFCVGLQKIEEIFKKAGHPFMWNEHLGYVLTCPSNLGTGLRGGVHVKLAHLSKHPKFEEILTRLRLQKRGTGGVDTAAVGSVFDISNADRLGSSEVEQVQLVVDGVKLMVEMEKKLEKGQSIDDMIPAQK
Creatine kinase M-type (Oryctolagus cuniculus), sequence (P00563 whole entry): as above

As a reminder, the inhibition is the drop in the measured response relative to a control, in per cent. Turning to `O=C(NCc1ccccc1)c1ccc(-c2ccc(C(=O)O)o2)cc1`, the inhibition in assay [1] came to 20%.

For `O=C(c1ccccc1)c1ccc(-c2ccc(-c3ccc(C(=O)O)o3)cc2)cc1`, the inhibition in assay [1] turned out to be 63%.

The term pIC50 denotes the negative decadic logarithm of the IC50, by convention in mol/L. Read a high pIC50 as a small IC50. One may read the pKi as the Ki on a negative log10 scale, so that one unit is a factor of ten. With `O=C(Nc1ccc(C(=O)c2ccccc2)cc1)c1ccc(-c2ccc(C(=O)O)o2)cc1`, the inhibition in assay [1] came out at 35%. On Creatine kinase M-type [2], this molecule had a pIC50 of 4.30 and a pKi of 4.60. For the same molecule, the pKi at Creatine kinase M-type [3] is 4.15.

`O=C(NCc1ccc(-c2ccccc2)cc1)c1ccc(-c2ccc(C(=O)O)o2)cc1`: the inhibition in assay [1] was 63%.

Values taken from ChEMBL document CHEMBL1143011, “NMR screening applied to the fragment-based generation of inhibitors of creatine kinase exploiting a new interaction proximate to the ATP binding site” (J Med Chem, 2007).
